Earlier results on one molecule are cited in US11439651B2 (priority 2020, dated 2022).

In one series the test system is SARS. The note with it: pre-treatment with low concentrations; cultured cells or freshly obtained human nasal epithelial cells.
Another series concerns SARS particles. The note with it: cultured human cells with SARS particles added.

Consider `CCCCCCCCCCCCC/C=C/[C@@H](O)[C@@H](N)CO` [sphingosine], for which the “adhesion of and infection with the virus” value with SARS was “prevented adhesion of and infection with the virus”. Moreover, in the series with SARS particles, the cellular infection result is “prevented cellular infection”.
